The structures appear in SMILES notation.

For orientation: logP means a log measure of how a compound divides between an organic and an aqueous phase. Low values mean lower lipophilicity, high ones higher lipophilicity.

The nature of series [1]: Chemical characteristics of composition A′, concentrated and diluted forms. The series is classed as physicochemical. Here is the method: Several tests were conducted to determine the chemical characteristics of composition A′, both in concentrated and diluted forms. […] All liquid nanodomain droplets range in size from 5 to 20 nm. The pH of both the concentrate and diluted formulations is between 6.0 and 7.5.

The conditions of series [2]: rats, cited from earlier work.
The target in the next series is CB2 receptors (Homo sapiens, UniProt P34972). Particulars: cited from earlier work.
For series [3] the following is noted: doses ranging from 10 mg to 6000 mg, single and multiple doses; cited from earlier work.

CB2 receptors, sequence (P34972 whole entry): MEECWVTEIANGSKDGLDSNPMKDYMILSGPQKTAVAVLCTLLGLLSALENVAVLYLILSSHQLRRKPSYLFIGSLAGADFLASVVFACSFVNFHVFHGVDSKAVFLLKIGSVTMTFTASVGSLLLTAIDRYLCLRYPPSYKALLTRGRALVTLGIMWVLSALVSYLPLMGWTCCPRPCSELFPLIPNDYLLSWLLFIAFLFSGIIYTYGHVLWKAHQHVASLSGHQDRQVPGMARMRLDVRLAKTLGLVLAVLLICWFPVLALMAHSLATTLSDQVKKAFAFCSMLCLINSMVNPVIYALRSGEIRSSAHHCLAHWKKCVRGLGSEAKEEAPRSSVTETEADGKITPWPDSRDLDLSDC

On to `C=C(C)[C@@H]1CCC(C)=C[C@H]1c1c(O)cc(CCCCC)cc1O` [CBD, 2-(1R,6R)-3-methyl-6-prop-1-en-2-ylcyclohex-2-en-1-yl-5-pentylbenzene-1,3-diol], for which the logP in series [1] is ~6. Moreover, the T1/2 in series [2] (120 mg/kg dose, oral) was 4 to 5 h. The “Bioavailability of CBD delivered orally” value in series [2] (single 10 mg/kg) was 2.8%. Also, on CB2 receptors, the “Affinity for CB2 receptors” value is listed as “low affinity”. The Safety entry in series [3] is “safe”.

The record behind these values is patent US20240252519A1, “METHODS FOR THE TREATMENT OF POST-TRAUMATIC STRESS DISORDER AND TRAUMATIC BRAIN INJURY WITH CANNABINOIDS” (ANANDA SCIENTIFIC, INC., priority 2021, published 2024).
